Assay results taken from PubChem BioAssay (NCI).
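Five compound concentrations were applied to cells in 96-well plates for 48 hours; endpoints were derived by simple linear interpolation of the resulting dose-response curve. TGI marks complete inhibition of growth.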

What was measured:
Experiment in all cases: NCI anticancer screen, dose series, 48 h
SR leukemia = tested on: SR leukemia
EKVX NSCLC = tested on: EKVX NSCLC
A498 renal = tested on: A498 renal
MALME-3M melanoma = tested on: MALME-3M melanoma
OVCAR-8 ovarian = tested on: OVCAR-8 ovarian
LOX IMVI melanoma = tested on: LOX IMVI melanoma
SK-MEL-5 melanoma = tested on: SK-MEL-5 melanoma
HCT-116 colon = tested on: HCT-116 colon
K-562 leukemia = tested on: K-562 leukemia
SK-OV-3 ovarian = tested on: SK-OV-3 ovarian
UACC-62 melanoma = tested on: UACC-62 melanoma
IGROV1 ovarian = tested on: IGROV1 ovarian
MCF7 breast = tested on: MCF7 breast
NCI-H226 lung = tested on: NCI-H226 lung
HT29 colon = tested on: HT29 colon
A549 NSCLC = tested on: A549 NSCLC
SF-268 CNS = tested on: SF-268 CNS
SK-MEL-28 melanoma = tested on: SK-MEL-28 melanoma
PC-3 prostate = tested on: PC-3 prostate
HCT-15 colon = tested on: HCT-15 colon
OVCAR-3 ovarian = tested on: OVCAR-3 ovarian
ACHN renal = tested on: ACHN renal
OVCAR-5 ovarian = tested on: OVCAR-5 ovarian
NCI/ADR-RES ovarian = tested on: NCI/ADR-RES ovarian
CCRF-CEM leukemia = tested on: CCRF-CEM leukemia
OVCAR-4 ovarian = tested on: OVCAR-4 ovarian
BT-549 breast = tested on: BT-549 breast
UO-31 renal = tested on: UO-31 renal
T-47D breast = tested on: T-47D breast
RXF 393 renal = tested on: RXF 393 renal
SNB-75 CNS = tested on: SNB-75 CNS
KM12 colon = tested on: KM12 colon
SN12C renal = tested on: SN12C renal
MDA-MB-231 breast = tested on: MDA-MB-231 breast
U251 CNS = tested on: U251 CNS
M14 melanoma = tested on: M14 melanoma
RPMI-8226 leukemia = tested on: RPMI-8226 leukemia
COLO 205 colon = tested on: COLO 205 colon
MOLT-4 leukemia = tested on: MOLT-4 leukemia
SNB-19 CNS = tested on: SNB-19 CNS
SF-295 CNS = tested on: SF-295 CNS
MDA-MB-435 = tested on: MDA-MB-435
NCI-H522 lung = tested on: NCI-H522 lung
HS 578T breast = tested on: HS 578T breast
NCI-H23 lung = tested on: NCI-H23 lung
CAKI-1 renal = tested on: CAKI-1 renal
SK-MEL-2 melanoma = tested on: SK-MEL-2 melanoma
HOP-92 NSCLC = tested on: HOP-92 NSCLC
SW-620 colon = tested on: SW-620 colon
DU-145 prostate = tested on: DU-145 prostate
SF-539 CNS = tested on: SF-539 CNS
786-0 renal = tested on: 786-0 renal
HL-60(TB) leukemia = tested on: HL-60(TB) leukemia
HOP-62 NSCLC = tested on: HOP-62 NSCLC

O=C(CSc1nc2ccc(I)cc2c(=O)n1Cc1ccccc1)Nc1ccc(Br)cc1
TGI (SR leukemia): 27.4 µM | TGI (EKVX NSCLC): 38.9 µM | TGI (A498 renal): 68.1 µM | TGI (MALME-3M melanoma): 61.6 µM | TGI (OVCAR-8 ovarian): 36.2 µM | TGI (LOX IMVI melanoma): > 100 µM | TGI (SK-MEL-5 melanoma): > 100 µM | TGI (HCT-116 colon): > 100 µM | TGI (K-562 leukemia): > 100 µM | TGI (SK-OV-3 ovarian): > 100 µM | TGI (UACC-62 melanoma): > 100 µM | TGI (IGROV1 ovarian): > 100 µM | TGI (MCF7 breast): > 100 µM | TGI (NCI-H226 lung): > 100 µM | TGI (HT29 colon): > 100 µM | TGI (A549 NSCLC): > 100 µM | TGI (SF-268 CNS): 28 µM | TGI (SK-MEL-28 melanoma): > 100 µM | TGI (PC-3 prostate): 58.6 µM | TGI (HCT-15 colon): > 100 µM | TGI (OVCAR-3 ovarian): > 100 µM | TGI (ACHN renal): > 100 µM | TGI (OVCAR-5 ovarian): > 100 µM | TGI (NCI/ADR-RES ovarian): > 100 µM | TGI (CCRF-CEM leukemia): > 100 µM | TGI (OVCAR-4 ovarian): > 100 µM | TGI (BT-549 breast): > 100 µM | TGI (UO-31 renal): 0.382 µM | TGI (T-47D breast): > 100 µM | TGI (RXF 393 renal): > 100 µM | TGI (SNB-75 CNS): 36.6 µM | TGI (KM12 colon): > 100 µM | TGI (SN12C renal): > 100 µM | TGI (MDA-MB-231 breast): 89.7 µM | TGI (U251 CNS): > 100 µM | TGI (M14 melanoma): > 100 µM | TGI (RPMI-8226 leukemia): > 100 µM | TGI (COLO 205 colon): > 100 µM | TGI (MOLT-4 leukemia): > 100 µM | TGI (SNB-19 CNS): > 100 µM | TGI (SF-295 CNS): > 100 µM | TGI (MDA-MB-435): > 100 µM | TGI (NCI-H522 lung): > 100 µM | TGI (HS 578T breast): 62.7 µM | TGI (NCI-H23 lung): > 100 µM | TGI (CAKI-1 renal): 20.2 µM | TGI (SK-MEL-2 melanoma): > 100 µM | TGI (HOP-92 NSCLC): > 100 µM | TGI (SW-620 colon): > 100 µM | TGI (DU-145 prostate): > 100 µM | TGI (SF-539 CNS): 6.1 µM | TGI (786-0 renal): > 100 µM | TGI (HL-60(TB) leukemia): > 100 µM | TGI (HOP-62 NSCLC): > 100 µM
